The values below come from US20250257048A1, “METHODS OF PREPARING AN ISOINDOLINONE DERIVATIVE AND CRYSTAL FORMS THEREOF” (Monte Rosa Therapeutics, Inc., priority 2022, published 2025).

Where “and” joins values, the source holds several entries; their conditions need not be identical. Equal values may be shown once. Read-outs that look alike come from different tables or passages of the source. Where only a bound is given, the exact number is not on record here.

A word on the IC50: it is the concentration that inhibits the measured activity by half. As a reminder, the DC50 is the concentration at which degradation of the target reaches its halfway point. A word on the solubility: it is the concentration that dissolves in the medium under given conditions.

The target in series [1] is Full length wild-type cereblon CRBN (Homo sapiens (Human), UniProt Q96SW2). Briefly: fluorescence polarization (FP) homogeneous assay, cereblon binding. Particulars: CRBN 80.0 nM, probe 5 nM, FP read after 12 hours, read-out: rFP IC50. As for the experimental part:
Compound activity was monitored in a fluorescence polarization (FP) homogeneous assay using 1-[5-({2-[2-(2-{[2-(2,6-dioxopiperidin-3-yl)-1,3-dioxo-2,3-dihydro-1H-isoindol-4-yl]oxy}acetamido) ethoxy]ethyl}carbamoyl) pentyl]-3,3-dimethyl-2-[(1E,3E)-5-[(2E)-1,3,3-trimethyl-5-sulfo-2,3-dihydro-1H-indol-2-ylidene]penta-1,3-dien-1-yl]-3H-indol-1-ium-5-sulfonate as a fluorescent probe. Unless otherwise stated, all reagents were purchased from Sigma Aldrich. Enzymatic reactions were conducted in Perkin-Elmer Black 384 well ProxiPlate Plus (catalogue no. 6008269) in 10 μL total volume. Full length wild-type cereblon CRBN (80.0 nM, 10 μL) was incubated in assay buffer containing 20 mM HEPES (pH 8.0), […], 0.5 mM TCEP and 0.05% Tween 20 in the presence or absence of compound (300 nL). Inhibitors were stored as 10 mM DMSO stocks in an inert environment (low humidity, dark, low oxygen, room temperature) using the Storage Pod System. Compounds and DMSO were dispensed using the Echo E5XX (Labcyte Inc. USA) to give concentrations from 300 to 0.937 or 3000 to 9.3 nM in a 12 data point curve. […] FP was measured after a period of 12 hours using a Pherastar plate reader (BMG Labtech, Germany) exciting at 590 nm and measuring the amount of parallel and perpendicular light at 675 nm. […]

Series [2] concerns the target GSPT1 (Homo sapiens (Human), UniProt P15170+Q96SW2). Briefly: immunofluorescence assay for GSPT1 degradation in CAL-51 cells. The format is cell-based. Particulars: 6 hours treatment. As to the method: The representative compounds were tested in an immunofluorescence assay for their activity to bind to degrade GSPT1. CAL-51 cells were purchased from DSMZ (cat. Number ACC302), sub-cultured in 90% Dulbecco's MEM (4.5 g/L glucose, Gibco 11965)+10% heat inactivated FBS (BioConcept, 2-01F136I) and incubated at 37° C., 5% CO2. For the assay, imaging microtiterplate Cell Carrier 96 Ultra (Perkin Elmer 6055302) were pre-coated with Fibronectin (Sigma F085, 30 μl at 0.2 μg/ml) in PBS (100 μl, Gibco 14190) for 45 min at room temperature, rinsed with PBS and CAL-51 cells (30K cells/well) were plated and let to adhere overnight. Cells were treated with compounds typically using a serial dilution ranging from 30 μM to 0.1 nM for 6 hours. […]
Primary antibody (human GSPT1, Sigma HPA052488) was diluted in blocking buffer (dil.1/300, 35 μl/well) and incubated with the cells overnight at 4° C. […] Fluorescence intensity of Alexa-Fluor 488 (GSPT1), Alexa-Fluor 647 (Actin) and DAPI (Nucleus) were measured. […] The outline of the cells was determined analogously from the sum of the normalized, smoothed DAPI and Actin channel, starting from each nucleus.
The Alexa-Fluor 488 (GSPT1) signal intensity in each cell was finally measured, in order to obtain a Mean intensity per cell. GSPT1 degradation (DC50) was calculated after normalization to controls and data import in CDD vault Database, using non-linear regression. […]

Series [3] is described as follows: solid stability at 40° C./75% RH and 25° C./60% RH for 7 days (HPLC purity, XRPD). Particulars: for physical and chemical stability: 25° C. 60% RH and 40° C. 75% RH for 7 days. Type of series: physicochemical. As for the experimental part: Solid stability was evaluated at 40° C./75RH and 25° C./60% RH for 7 days.
Series [4] is described as follows: solubility of crystalline Form I in media (water) at 37° C. Type of series: physicochemical. As to the method: Solubility of crystalline Form I was evaluated by weighing about 10 mg of crystalline Form I into 2 mL of media, and then stirring the suspension at 37° C. for 24 hours. At 1, 4 and 24 hours, the suspensions were filtered, and the filtrates were analyzed by HPLC and pH.

The nature of series [5]: hygroscopicity of crystalline form. Type of series: physicochemical.

Sequence of GSPT1 (P15170 whole entry): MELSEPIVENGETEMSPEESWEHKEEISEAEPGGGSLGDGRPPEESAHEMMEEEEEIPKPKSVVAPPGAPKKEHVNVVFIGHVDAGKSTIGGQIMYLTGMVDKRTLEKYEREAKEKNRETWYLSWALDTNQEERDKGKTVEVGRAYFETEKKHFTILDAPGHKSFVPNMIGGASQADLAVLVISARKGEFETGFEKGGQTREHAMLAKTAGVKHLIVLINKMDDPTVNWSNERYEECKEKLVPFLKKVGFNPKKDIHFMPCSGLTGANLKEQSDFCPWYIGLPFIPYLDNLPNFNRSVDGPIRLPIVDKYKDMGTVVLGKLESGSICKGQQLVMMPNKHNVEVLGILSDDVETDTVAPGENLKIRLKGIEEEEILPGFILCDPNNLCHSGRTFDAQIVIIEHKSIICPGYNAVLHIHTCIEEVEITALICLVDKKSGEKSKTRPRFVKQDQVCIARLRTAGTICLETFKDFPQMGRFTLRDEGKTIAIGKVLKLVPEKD
Sequence of GSPT1 (Q96SW2 whole entry): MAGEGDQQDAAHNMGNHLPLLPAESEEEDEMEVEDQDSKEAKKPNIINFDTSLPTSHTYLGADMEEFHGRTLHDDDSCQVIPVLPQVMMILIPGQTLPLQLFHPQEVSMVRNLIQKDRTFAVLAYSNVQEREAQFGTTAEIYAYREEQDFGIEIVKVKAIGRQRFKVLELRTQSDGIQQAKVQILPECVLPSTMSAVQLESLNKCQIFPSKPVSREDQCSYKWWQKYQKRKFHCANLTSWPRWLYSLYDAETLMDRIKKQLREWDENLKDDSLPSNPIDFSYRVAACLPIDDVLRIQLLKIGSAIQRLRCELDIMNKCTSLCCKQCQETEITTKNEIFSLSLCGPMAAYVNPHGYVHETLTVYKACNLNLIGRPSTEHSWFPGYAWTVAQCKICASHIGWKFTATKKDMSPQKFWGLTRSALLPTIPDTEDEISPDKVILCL
Sequence of GSPT1 (Q16531 whole entry partner): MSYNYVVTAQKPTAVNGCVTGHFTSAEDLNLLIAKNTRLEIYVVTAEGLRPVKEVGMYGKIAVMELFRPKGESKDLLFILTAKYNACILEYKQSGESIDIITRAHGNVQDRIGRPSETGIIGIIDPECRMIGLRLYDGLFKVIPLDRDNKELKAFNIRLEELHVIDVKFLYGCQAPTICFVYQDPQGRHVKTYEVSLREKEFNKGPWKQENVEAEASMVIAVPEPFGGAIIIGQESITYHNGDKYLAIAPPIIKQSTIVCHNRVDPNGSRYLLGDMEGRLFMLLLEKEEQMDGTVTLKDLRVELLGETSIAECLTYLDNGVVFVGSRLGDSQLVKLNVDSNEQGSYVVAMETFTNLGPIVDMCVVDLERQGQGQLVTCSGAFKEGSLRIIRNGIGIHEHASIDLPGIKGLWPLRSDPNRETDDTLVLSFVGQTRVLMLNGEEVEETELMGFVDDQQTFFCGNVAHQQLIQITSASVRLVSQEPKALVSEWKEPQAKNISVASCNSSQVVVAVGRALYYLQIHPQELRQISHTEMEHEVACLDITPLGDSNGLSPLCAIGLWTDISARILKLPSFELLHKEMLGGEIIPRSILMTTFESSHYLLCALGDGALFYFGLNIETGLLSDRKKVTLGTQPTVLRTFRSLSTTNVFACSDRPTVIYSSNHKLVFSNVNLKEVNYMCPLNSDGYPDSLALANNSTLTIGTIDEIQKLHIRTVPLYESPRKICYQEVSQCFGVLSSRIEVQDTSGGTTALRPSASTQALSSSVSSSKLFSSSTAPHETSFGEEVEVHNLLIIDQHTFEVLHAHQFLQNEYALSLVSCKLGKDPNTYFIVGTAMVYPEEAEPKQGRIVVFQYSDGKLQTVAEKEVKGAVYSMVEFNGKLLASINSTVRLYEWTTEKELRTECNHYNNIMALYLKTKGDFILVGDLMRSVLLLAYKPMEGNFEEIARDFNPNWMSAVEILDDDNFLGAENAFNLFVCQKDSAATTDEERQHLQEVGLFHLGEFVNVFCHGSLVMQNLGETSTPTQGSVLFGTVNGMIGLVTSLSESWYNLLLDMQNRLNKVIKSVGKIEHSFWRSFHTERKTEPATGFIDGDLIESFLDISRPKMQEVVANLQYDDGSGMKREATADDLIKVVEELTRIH
Sequence of Full length wild-type cereblon CRBN (Q96SW2 whole entry): as the sequence (Q96SW2 whole entry) above

Turning to `O=C1CCC(N2Cc3ccc(COC(=O)Nc4cc(OC(F)(F)F)ccc4F)cc3C2=O)C(=O)N1` (centres unmarked) [Compound 145, (2-(2,6-dioxopiperidin-3-yl)-3-oxoisoindolin-5-yl)methyl (2-fluoro-5-(trifluoromethoxy)phenyl)carbamate], the concentration for half-maximal inhibition (IC50) in series [1] lay within 500 to 1100 nM. The compound further came in with a 50% degradation concentration (DC50) in series [2] of 30 to 300 nM.
In the case of `O=C1CCC(N2Cc3ccc(COC(=O)Nc4cc(OC(F)(F)F)ccc4F)cc3C2=O)C(=O)N1` (centres unmarked) [Form I, (2-(2,6-dioxopiperidin-3-yl)-3-oxoisoindolin-5-yl)methyl (2-fluoro-5-(trifluoromethoxy)phenyl)carbamate], the “physical and chemical stability” value was “good physical and chemical stability” in series [3]; “physically and chemically stable” in series [3] (listed as Crystalline Form I); “no obvious degradation nor form change” in series [3] (listed as crystalline Form I). In addition, the Purity in series [3] (25° C./60% RH, 1 day) was determined as 100%; in series [3] (25° C./60% RH, 7 day), 100%; in series [3] (40° C./75% RH, 1 day), 100%; in series [3] (40° C./75% RH, 7 day), 99.95%. Also, the XRPD entry is “Form I” in series [3] (25° C./60% RH, 1 day); “Form I” in series [3] (25° C./60% RH, 7 day); “Form I” in series [3] (40° C./75% RH, 1 day); “Form I” in series [3] (40° C./75% RH, 7 day). In series [3] (T0 (day 0), HPLC), this compound showed a Purity-T0 of 100%. Also, the “crystal form of remained solid in all media” value in series [4] (37° C., after 1, 4 and 24 hours, XRPD (FIG. 5)) is on record as “unchanged”. Besides, the solubility in series [4] (aqueous solution, 37 °C, aqueous buffer, thermodynamic from solid, about pH 6 to 7, read-out: solubility in an aqueous solution) is under 1 µg/mL; in series [4] (water, 37 °C, water, thermodynamic from solid, read-out: solubility in water) it was under 1 µg/mL. The “pH(24 h)” value in series [4] (pH of filtrate, H2O, 37° C., 24 h) was 6.35 and 6.61 and 6.41. Also, the “XRPD(24 h)” value in series [4] (remained solid, H2O, 37° C., 24 h) is recorded as “Form I”. Also, in series [4] (water, 37 °C, thermodynamic from solid, H2O, 1 h, triplicate H2O-1 to H2O-3), the solubility at 1 h was under 1 µg/mL. The compound further came in with a solubility at 4 h in series [4] (water, 37 °C, thermodynamic from solid, H2O, 4 h, triplicate H2O-1 to H2O-3) of under 1 µg/mL. The compound further came in with a solubility at 24 h in series [4] (water, 37 °C, thermodynamic from solid, H2O, 24 h, triplicate H2O-1 to H2O-3) of under 1 µg/mL. Besides, the hygroscopicity result in series [5] is on record as “nonhydroscopic”.
